target: T1, HDAC6 enzyme (Homo sapiens, UniProt Q9UBN7); experiment: HDAC6 enzyme inhibitory activity (HDAC-Glo I/II Assay kit); format: biochemical; settings: 10 μM; wells without enzyme = 100% inhibition
T1 construct: transducing full length HDAC6 gene into Sf-9 insect cells; GST; purchased SignalChem; host or cells: Sf-9 insect cells
T1 sequence (Q9UBN7 1-1215): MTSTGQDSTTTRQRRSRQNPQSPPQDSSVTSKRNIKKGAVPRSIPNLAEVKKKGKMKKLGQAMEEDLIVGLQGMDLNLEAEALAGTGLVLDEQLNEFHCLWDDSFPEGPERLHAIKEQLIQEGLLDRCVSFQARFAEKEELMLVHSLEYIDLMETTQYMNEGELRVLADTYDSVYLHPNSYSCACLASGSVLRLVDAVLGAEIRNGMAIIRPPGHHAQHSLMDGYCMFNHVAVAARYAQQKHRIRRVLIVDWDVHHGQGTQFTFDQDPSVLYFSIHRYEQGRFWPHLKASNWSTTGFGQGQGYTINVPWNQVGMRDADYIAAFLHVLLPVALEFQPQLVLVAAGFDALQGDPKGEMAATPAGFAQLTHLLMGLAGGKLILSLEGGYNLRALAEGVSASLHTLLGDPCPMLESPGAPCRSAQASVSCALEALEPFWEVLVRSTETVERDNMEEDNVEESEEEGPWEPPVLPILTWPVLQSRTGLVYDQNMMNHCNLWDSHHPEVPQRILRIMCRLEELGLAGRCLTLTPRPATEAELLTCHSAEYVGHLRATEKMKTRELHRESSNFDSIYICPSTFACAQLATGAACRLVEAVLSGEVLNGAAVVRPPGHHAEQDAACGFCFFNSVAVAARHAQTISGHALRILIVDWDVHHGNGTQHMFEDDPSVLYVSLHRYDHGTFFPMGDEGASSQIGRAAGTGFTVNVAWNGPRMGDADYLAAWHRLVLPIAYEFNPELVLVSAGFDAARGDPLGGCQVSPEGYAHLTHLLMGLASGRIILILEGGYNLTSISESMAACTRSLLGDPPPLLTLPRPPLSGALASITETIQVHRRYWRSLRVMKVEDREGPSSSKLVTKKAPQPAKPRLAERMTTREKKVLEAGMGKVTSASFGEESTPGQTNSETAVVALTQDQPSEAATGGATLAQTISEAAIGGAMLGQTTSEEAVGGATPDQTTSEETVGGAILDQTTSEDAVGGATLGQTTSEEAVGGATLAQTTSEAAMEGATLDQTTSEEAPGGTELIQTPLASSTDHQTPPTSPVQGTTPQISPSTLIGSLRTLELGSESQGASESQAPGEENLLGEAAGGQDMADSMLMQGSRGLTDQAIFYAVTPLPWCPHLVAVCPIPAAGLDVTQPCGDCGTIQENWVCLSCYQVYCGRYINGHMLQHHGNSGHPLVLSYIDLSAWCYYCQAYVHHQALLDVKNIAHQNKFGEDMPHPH
In short: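 Test compound is preincubated 60 min at RT with full-length insect-cell HDAC6 in Tris-HCl pH 7.5 with 135 mM NaCl and 1 mM MgCl2. A 20 min room-temperature HDAC-Glo reaction follows, with luminescent read-out.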

HDAC6 inhibitory rate (%) (10 μM)	Structure (SMILES)
100	O=C(N[C@@H]1CCCC[C@H]1N1Cc2ccc(-c3nnc(C(F)F)o3)cc2C1=O)C1CC12CCC2 (stereo partly drawn) [Example 119, N-((1R,2R)-2-(6-(5-(difluoromethyl)-1,3,4-oxadiazol-2-yl)-1-oxo-1,3-dihydro-2H-isoindol-2-yl)cyclohexyl)spiro[2.3]hexane-1-carboxamide (optical isomer)]
100	O=C(N[C@@H]1CCCC[C@H]1N1Cc2ccc(-c3nnc(C(F)F)o3)cc2C1=O)C1CC1(F)F (stereo partly drawn) [Example 121, N-((1R,2R)-2-(6-(5-(difluoromethyl)-1,3,4-oxadiazol-2-yl)-1-oxo-1,3-dihydro-2H-isoindol-2-yl)cyclohexyl)-2,2-difluorocyclopropanecarboxamide (optical isomer)]

same assay, conditions: 10 μM; wells without enzyme = 100% inhibition; read-out: HDAC6 inhibitory rate (%) (10 μM)

inhibition at 10 µM [%]	Structure (SMILES)
98	C[C@@H](C1CC1)N1Cc2ccc(-c3nnc(C(F)F)o3)cc2C1=O [Example 116, 2-((1S)-1-cyclopropylethyl)-6-(5-(difluoromethyl)-1,3,4-oxadiazol-2-yl)isoindolin-1-one]
95	O=C1c2cc(-c3nnc(C(F)F)o3)ccc2CN1C1CCOCC1 [Example 122, 6-(5-(difluoromethyl)-1,3,4-oxadiazol-2-yl)-2-(tetrahydro-2H-pyran-4-yl)isoindolin-1-one]
101	O=C1c2cc(-c3nnc(C(F)F)o3)ccc2CN1[C@@H]1CCCC[C@H]1n1ccnn1 [Example 123]
99	O=C1CCCN1[C@@H]1CCCC[C@H]1N1Cc2c(F)cc(-c3nnc(C(F)F)o3)cc2C1=O [Example 124, 6-(5-(difluoromethyl)-1,3,4-oxadiazol-2-yl)-4-fluoro-2-((1R,2R)-2-(2-oxopyrrolidin-1-yl)cyclohexyl)isoindolin-1-one]
98	CC(C)(C)OC(=O)N1CC[C@@H](N2Cc3ccc(-c4nnc(C(F)F)o4)cc3C2=O)[C@@H](c2ccccc2)C1 [Example 125, tert-butyl (3S,4R)-4-(6-(5-(difluoromethyl)-1,3,4-oxadiazol-2-yl)-1-oxo-1,3-dihydro-2H-isoindol-2-yl)-3-phenylpiperidine-1-carboxylate]
100	O=C1c2cc(-c3nnc(C(F)F)o3)ccc2CN1[C@@H]1CCNC[C@@H]1c1ccccc1 [Example 126, 6-(5-(difluoromethyl)-1,3,4-oxadiazol-2-yl)-2-((3S,4R)-3-phenylpiperidin-4-yl)isoindolin-1-one]
100	CC(=O)N1CC[C@@H](N2Cc3ccc(-c4nnc(C(F)F)o4)cc3C2=O)[C@@H](c2ccccc2)C1 [Example 127, 2-((3S,4R)-1-acetyl-3-phenylpiperidin-4-yl)-6-(5-(difluoromethyl)-1,3,4-oxadiazol-2-yl)isoindolin-1-one]
100	COC(=O)N1CC[C@@H](N2Cc3ccc(-c4nnc(C(F)F)o4)cc3C2=O)[C@@H](c2ccccc2)C1 [Example 128, methyl (3S,4R)-4-(6-(5-(difluoromethyl)-1,3,4-oxadiazol-2-yl)-1-oxo-1,3-dihydro-2H-isoindol-2-yl)-3-phenylpiperidine-1-carboxylate]
100	O=C1c2cc(-c3nnc(C(F)F)o3)ccc2CN1c1ccccc1-c1ccccc1 [Example 129, 2-(biphenyl-2-yl)-6-(5-(difluoromethyl)-1,3,4-oxadiazol-2-yl)isoindolin-1-one]
93	CCOC(=O)N1CCC(N2Cc3ccc(-c4nnc(C(F)F)o4)cc3C2=O)CC1 [Example 130, ethyl 4-(6-(5-(difluoromethyl)-1,3,4-oxadiazol-2-yl)-1-oxo-1,3-dihydro-2H-isoindol-2-yl)piperidine-1-carboxylate]
99	O=C(N[C@@H]1CCCC[C@H]1N1Cc2ccc(-c3nnc(C(F)F)o3)cc2C1=O)OCC(F)F [Example 131, 2,2-difluoroethyl ((1R,2R)-2-(6-(5-(difluoromethyl)-1,3,4-oxadiazol-2-yl)-1-oxo-1,3-dihydro-2H-isoindol-2-yl)cyclohexyl)carbamate]
94	O=C(N[C@@H]1CCCC[C@H]1N1Cc2ccc(-c3nnc(C(F)F)o3)cc2C1=O)OCCC(F)(F)F [Example 132, 3,3,3-trifluoropropyl ((1R,2R)-2-(6-(5-(difluoromethyl)-1,3,4-oxadiazol-2-yl)-1-oxo-1,3-dihydro-2H-isoindol-2-yl)cyclohexyl)carbamate]
93	O=C1c2cc(-c3nnc(C(F)F)o3)ccc2CN1c1ccccc1-c1ccc(C(F)(F)F)cc1 [Example 133, 6-(5-(difluoromethyl)-1,3,4-oxadiazol-2-yl)-2-(4′-(trifluoromethyl)biphenyl-2-yl)isoindolin-1-one]
101	COc1ccc(-c2ccccc2N2Cc3ccc(-c4nnc(C(F)F)o4)cc3C2=O)cc1 [Example 134, 6-(5-(difluoromethyl)-1,3,4-oxadiazol-2-yl)-2-(4′-methoxybiphenyl-2-yl)isoindolin-1-one]
99	O=C1c2cc(-c3nnc(C(F)F)o3)cc(F)c2CN1Cc1ccccc1 [Example 136, 2-benzyl-6-(5-(difluoromethyl)-1,3,4-oxadiazol-2-yl)-4-fluoroisoindolin-1-one]
98	O=C1CCCCN1[C@@H]1COCC[C@H]1N1Cc2c(F)cc(-c3nnc(C(F)F)o3)cc2C1=O [Example 137, 6-(5-(difluoromethyl)-1,3,4-oxadiazol-2-yl)-4-fluoro-2-((3S,4R)-3-(2-oxopiperidin-1-yl)tetrahydro-2H-pyran-4-yl)isoindolin-1-one]
98	O=C1OCCN1[C@@H]1CCCC[C@H]1N1Cc2c(F)cc(-c3nnc(C(F)F)o3)cc2C1=O [Example 138, 6-(5-(difluoromethyl)-1,3,4-oxadiazol-2-yl)-4-fluoro-2-((1R,2R)-2-(2-oxo-1,3-oxazolidin-3-yl)cyclohexyl)isoindolin-1-one]
100	O=C1c2cc(-c3nnc(C(F)F)o3)cnc2CN1Cc1ccccc1 [Example 139, 6-benzyl-3-(5-(difluoromethyl)-1,3,4-oxadiazol-2-yl)-6,7-dihydro-5H-pyrrolo[3,4-b]pyridin-5-one]
100	C[C@H](c1ccc(F)cc1)N1Cc2ncc(-c3nnc(C(F)F)o3)cc2C1=O [Example 140, 3-(5-(difluoromethyl)-1,3,4-oxadiazol-2-yl)-6-((1R)-1-(4-fluorophenyl)ethyl)-6,7-dihydro-5H-pyrrolo[3,4-b]pyridin-5-one]
100	C[C@@H](c1ccc(F)cc1)N1Cc2ncc(-c3nnc(C(F)F)o3)cc2C1=O [Example 141, 3-(5-(difluoromethyl)-1,3,4-oxadiazol-2-yl)-6-((1S)-1-(4-fluorophenyl)ethyl)-6,7-dihydro-5H-pyrrolo[3,4-b]pyridin-5-one]
99	O=C(N[C@@H]1CCCC[C@H]1N1C(=O)c2ccc(-c3nnc(C(F)F)o3)cc2C1=O)OCc1ccccc1 [Example 142, benzyl ((1R,2R)-2-(5-(5-(difluoromethyl)-1,3,4-oxadiazol-2-yl)-1,3-dioxo-1,3-dihydro-2H-isoindol-2-yl)cyclohexyl)carbamate]
95	O=C1c2cc(-c3nnc(C(F)F)o3)ccc2CN1Cc1ncccc1Cl [Example 143, 2-((3-chloropyridin-2-yl)methyl)-6-(5-(difluoromethyl)-1,3,4-oxadiazol-2-yl)isoindolin-1-one]
97	O=C1c2cc(-c3nnc(C(F)F)o3)ccc2CN1Cc1cncc(C(F)(F)F)c1 [Example 144, 6-(5-(difluoromethyl)-1,3,4-oxadiazol-2-yl)-2-((5-(trifluoromethyl)pyridin-3-yl)methyl)isoindolin-1-one]
100	CS(=O)(=O)c1cccc(CN2Cc3ccc(-c4nnc(C(F)F)o4)cc3C2=O)c1 [Example 145, 6-(5-(difluoromethyl)-1,3,4-oxadiazol-2-yl)-2-(3-(methylsulfonyl)benzyl)isoindolin-1-one]

Structure (SMILES)	inhibition at 10 µM [%]
CCCCO[C@H]1CC[C@H](N2Cc3ccc(-c4nnc(C(F)F)o4)cc3C2=O)CC1 [Example 117, 2-(trans-4-butoxycyclohexyl)-6-(5-(difluoromethyl)-1,3,4-oxadiazol-2-yl)isoindolin-1-one]	96

From patent US10435399B2, “HDAC6 inhibitory heterocyclic compound” (TAKEDA PHARMACEUTICAL COMPANY LIMITED, priority 2017, dated 2019)
